Source: ChEMBL document CHEMBL1821602, “The Use of 3,5,4'-Tri-O-acetylresveratrol as a Potential Pro-drug for Resveratrol Protects Mice from γ-Irradiation-Induced Death” (ACS Med Chem Lett, 2011)
The source made the active and inactive calls. The rule behind the calls is not given here.

What was measured:
[1] = test system: Mus musculus; assay: Radioprotective activity against 9.75 Gy gamma radiation-induced death in C57BL/6NHsd mouse assessed as increase in survival rate at 25 mg/kg, ip administered 10 mins after irradiation daily for 4 days; type: functional, organism-based; set-up: dose 25 mg/kg
[2] = test system: Mus musculus; assay: Radioprotective activity against 9.75 Gy gamma radiation-induced death in C57BL/6NHsd mouse assessed as survival rate at 10 mg/kg, ip administered 10 mins prior to irradiation; type: functional
[3] = test system: Serum; assay: Metabolic stability in mouse serum up to 27 hrs by HPLC analysis; type: ADME, cell-free
[4] = Stability of the compound assessed as half life; type: physicochemical
[5] = organism: Mus musculus; assay: Radioprotective activity against 0 to 7 Gy gamma radiation-induced death in mouse 32Dcl3 cells at 10 uM treated 1 hr prior to irradiation after 7 days by microscopy; type: functional, cell-based
[6] = test system: Mus musculus; assay: Radioprotective activity against 9.75 Gy gamma radiation-induced death in C57BL/6NHsd mouse assessed as increase in survival rate at 1 mg/kg, ip administered 10 mins prior to irradiation; type: functional, organism-based; set-up: dose 1 mg/kg
[7] = Metabolic stability in mouse serum assessed as half life in presence of 1:1:8 mixture of EtOH/Cremophor EL/H2O by HPLC analysis; type: ADME, cell-free
[8] = test system: Serum; assay: Metabolic stability in mouse serum assessed as hydrolysis to resveratrol with in 20 secs by HPLC analysis; type: ADME, cell-free; conditions: 20 s

## Oc1ccc(/C=C/c2cc(O)cc(O)c2)cc1 [RESVERATROL]
[1]
  Activity: inactive
[2]
  Activity: inactive
[3]
  Stability: Stable
[4]
  half-life: 8 min
[5]
  Activity: Active
[6]
  Activity: inactive

## O=C(O[C@@H]1Cc2c(O)cc(O)cc2O[C@H]1c1ccc(O)c(O)c1)c1cc(O)c(O)c(O)c1
[5]
  Activity: inactive

## CCCOC(=O)c1cc(O)c(O)c(O)c1
[5]
  Activity: inactive

## CC(=O)Oc1ccc(/C=C/c2cc(OC(C)=O)cc(OC(C)=O)c2)cc1 [TRIACETYLRESVERATROL]
[1]
  Activity: inactive
[2]; route intraperitoneal
  Activity: 80%
[7]
  half-life: 48 min
[8]
  Stability: Unstable
[6]
  Activity: inactive
